Assay results published in patent US9023789B2, “Amylin analogs and pharmaceutical compositions thereof” (Novo Nordisk A/S, priority 2012, dated 2015).
pEC50, pIC50: −log10 of the molar value. Read-outs that look alike come from different tables or passages of the source. Numbered stars: 1 amine (or outer) side, 2 acyl side, 3 side chain; on linkers, the order of the positions; unused ones are H or OH. Bridge positions count the residues as written; N and C are the ends. Side chains are listed from the residue outwards. Peptide text beside a SMILES is read from it. * marks the point of attachment. C20 diacid = O=C(O)CCCCCCCCCCCCCCCCCCC(=O)*; γGlu = O=C(O)[C@H](CCC(=O)[*:2])N[*:1]; AEEA = NCCOCCOCC(=O)O

How the values were obtained:
[1] = molecular target: T1, human amylin 3(a) receptor (human calcitonin receptor + RAMP-3) in BHK570 cells (Homo sapiens, UniProt O60896+P30988); experiment: ASSAY (II)a functional assay, human amylin receptor (CRE luciferase); format: cell-based
T1 construct: expressed in transfected cells
Procedure, shortened: (§1)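 BHK cells stably carrying a CRE-luciferase reporter plus calcitonin receptor, or calcitonin receptor with RAMP-3 for the amylin 3(a) receptor, were seeded and kept overnight at 37° C. Compounds were added in assay medium with 10% FBS and 10 mM Hepes, pH 7.4, for 3 hours at 37° C, then luminescence was counted.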

[2] = ASSAY (III) ThT fibrillation assay for physical stability; format: physicochemical
Procedure, shortened: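 Formulations with 1 μM ThT, pH adjusted as required, incubated at 37 °C with 960 rpm orbital shaking; fluorescence (ex 444/em 485 nm) read every 20 min. Fibrillation reported as mean ThT fluorescence ± SD of 4–8 replicates at time points; polypeptide concentration measured by reverse-phase HPLC before and after, post-centrifugation.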

[3] = molecular target: T2, human calcitonin receptor (Homo sapiens, UniProt P30988); experiment: ASSAY (VII) binding to the human calcitonin receptor (SPA, 125I-Calcitonin);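 also: cell membranes (35 ng/µL) combined with SPA beads in 40 µL of pH 7.4 Hepes buffer, 384-well format, signal counted on a TopCounter instrument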
T2 construct: expressed in transfected cells
T2 sequence (P30988 25-474): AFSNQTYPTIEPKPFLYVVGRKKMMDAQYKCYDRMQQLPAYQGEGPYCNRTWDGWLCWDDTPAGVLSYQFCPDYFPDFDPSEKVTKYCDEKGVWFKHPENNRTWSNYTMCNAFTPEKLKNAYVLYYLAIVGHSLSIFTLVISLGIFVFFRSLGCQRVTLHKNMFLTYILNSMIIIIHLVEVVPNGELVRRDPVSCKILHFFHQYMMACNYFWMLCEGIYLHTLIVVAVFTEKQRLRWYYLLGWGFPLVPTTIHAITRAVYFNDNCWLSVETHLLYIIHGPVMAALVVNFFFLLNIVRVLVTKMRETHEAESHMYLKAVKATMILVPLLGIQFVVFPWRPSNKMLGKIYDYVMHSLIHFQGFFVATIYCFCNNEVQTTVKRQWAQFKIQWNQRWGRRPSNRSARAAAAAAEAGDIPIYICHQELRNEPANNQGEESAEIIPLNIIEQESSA

[4] = molecular target: T3, human calcitonin (a) receptor in BHK570 cells (Homo sapiens, UniProt P30988); experiment: ASSAY (II)a functional assay, human calcitonin receptor (CRE luciferase); format: cell-based
T3 construct: expressed in transfected cells
T3 sequence (P30988 25-474): T2 sequence (P30988 25-474)
Procedure, shortened: as §1

[5] = hCTR funct. EC50 divided by hAmylin-R funct. EC50
[6] = hCTR funct. EC50 over hAmylin-R funct. EC50
[7] = human amylin receptor functional potency, assay (II), read-out: hAmylin-R funct. EC50
[8] = human functional selectivity: hCTR funct. EC50 / hAmylin-R funct. EC50

T1 sequence (O60896 24-148, one chain of several): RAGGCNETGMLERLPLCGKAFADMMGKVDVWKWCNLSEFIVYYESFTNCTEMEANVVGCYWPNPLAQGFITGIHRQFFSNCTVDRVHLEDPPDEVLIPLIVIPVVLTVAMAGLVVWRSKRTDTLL

SMILES	Ratio hCT/hAmylin funct. [1, 5]	Ratio hCT/hAmylin funct. [1, 6]	pEC50 [1, 7]	Ratio hCT/hAmylin funct. [1, 8]	ThT pH 4.0 lag time (h) [2]	pIC50 ([3]; read-out: hCTR bind IC50)	pEC50 ([4]; read-out: hCTR funct. EC50)	pEC50 [1]	pIC50 [3]	pEC50 [4]
CC[C@H](C)[C@H](NC(=O)[C@H](C)NC(=O)CNC(=O)[C@H](Cc1ccccc1)NC(=O)[C@H](CC(N)=O)NC(=O)[C@@H]1CCCN1C(=O)[C@H](CO)NC(=O)[C@H](CO)NC(=O)[C@H](Cc1c[nH]cn1)NC(=O)[C@H](CCCNC(=N)N)NC(=O)[C@H](CC(C)C)NC(=O)[C@H](Cc1ccccc1)NC(=O)[C@H](CCCCN)NC(=O)[C@H](C)NC(=O)[C@H](CC(C)C)NC(=O)[C@H](CCCNC(=N)N)NC(=O)[C@H](CCC(N)=O)NC(=O)[C@@H](NC(=O)[C@H](C)NC(=O)[C@@H]1CSSC[C@H](NC(=O)[C@@H](N)CCCCNC(=O)COCCOCCNC(=O)CC[C@H](NC(=O)CCCCCCCCCCCCCCCCCCC(=O)O)C(=O)O)C(=O)N[C@@H](CC(N)=O)C(=O)N[C@@H]([C@@H](C)O)C(=O)N[C@@H](C)C(=O)N[C@@H]([C@@H](C)O)C(=O)N1)[C@@H](C)O)C(=O)N1CCC[C@H]1C(=O)N[C@@H](CO)C(=O)N[C@@H](CO)C(=O)N[C@H](C(=O)N1CCC[C@H]1C(=O)N[C@H](C(=O)NCC(=O)N[C@@H](CO)C(=O)N[C@@H](CC(N)=O)C(=O)N[C@H](C(=O)N[C@@H](Cc1ccc(O)cc1)C(N)=O)[C@@H](C)O)C(C)C)[C@@H](C)O [Example 74] (H-K([AEEA-γGlu-C20 diacid])CNTATCATQRLAKFLRHSSPNFGAIPSSTPVGSNTY-NH2; disulfide 2-7; N-terminus assumed)	56.3	56.3		56.3	45 h			9.18	7.10	7.43
CC[C@H](C)[C@H](NC(=O)[C@H](C)NC(=O)CNC(=O)[C@H](Cc1ccccc1)NC(=O)[C@H](CC(N)=O)NC(=O)[C@@H]1CCCN1C(=O)[C@H](CO)NC(=O)[C@H](CO)NC(=O)[C@H](Cc1c[nH]cn1)NC(=O)[C@H](CCCNC(=N)N)NC(=O)[C@H](CC(C)C)NC(=O)[C@H](Cc1ccccc1)NC(=O)[C@H](CCCNC(=N)N)NC(=O)[C@H](C)NC(=O)[C@H](CC(C)C)NC(=O)[C@H](CCCNC(=N)N)NC(=O)[C@H](CCC(N)=O)NC(=O)[C@@H](NC(=O)[C@H](C)NC(=O)[C@@H]1CSSC[C@H](NC(=O)[C@@H](N)CCCCNC(=O)COCCOCCNC(=O)CC[C@H](NC(=O)CCCCCCCCCCCCCCCCCCC(=O)O)C(=O)O)C(=O)N[C@@H](CC(N)=O)C(=O)N[C@@H]([C@@H](C)O)C(=O)N[C@@H](C)C(=O)N[C@@H]([C@@H](C)O)C(=O)N1)[C@@H](C)O)C(=O)N1CCC[C@H]1C(=O)N[C@@H](CO)C(=O)N[C@@H](CO)C(=O)N[C@H](C(=O)N1CCC[C@H]1C(=O)N[C@H](C(=O)NCC(=O)N[C@@H](CO)C(=O)N[C@@H](CC(N)=O)C(=O)N[C@H](C(=O)N[C@@H](Cc1ccc(O)cc1)C(N)=O)[C@@H](C)O)C(C)C)[C@@H](C)O [Example 64] (H-K([AEEA-γGlu-C20 diacid])CNTATCATQRLARFLRHSSPNFGAIPSSTPVGSNTY-NH2; disulfide 2-7; N-terminus assumed)	60.7	60.7	9.42	60.7	45 h	7.25	7.64			

Further compounds by rising pEC50 [1, 7], results first:

Ratio hCT/hAmylin funct. [1, 5]	Ratio hCT/hAmylin funct. [1, 6]	pEC50 [1, 7]	Ratio hCT/hAmylin funct. [1, 8]	ThT pH 4.0 lag time (h) [2]	pIC50 ([3]; read-out: hCTR bind IC50)	pEC50 ([4]; read-out: hCTR funct. EC50)	SMILES	pEC50 [1]	pIC50 [3]	pEC50 [4]
15.0	15.0	9.44	15.0	45 h	7.31	8.26	CC[C@H](C)[C@H](NC(=O)[C@H](C)NC(=O)CNC(=O)[C@H](Cc1ccccc1)NC(=O)[C@H](CC(N)=O)NC(=O)[C@@H]1CCCN1C(=O)[C@H](CO)NC(=O)[C@H](CO)NC(=O)[C@H](Cc1c[nH]cn1)NC(=O)[C@H](CCCNC(=N)N)NC(=O)[C@H](CC(C)C)NC(=O)[C@H](Cc1ccccc1)NC(=O)[C@H](CC(N)=O)NC(=O)[C@H](C)NC(=O)[C@H](CC(C)C)NC(=O)[C@H](CCCNC(=N)N)NC(=O)[C@H](CCC(N)=O)NC(=O)[C@@H](NC(=O)[C@H](C)NC(=O)[C@@H]1CSSC[C@H](NC(=O)[C@@H](N)CCCCNC(=O)CC[C@H](NC(=O)CCCCCCCCCCCCCCCCCCC(=O)O)C(=O)O)C(=O)N[C@@H](CC(N)=O)C(=O)N[C@@H]([C@@H](C)O)C(=O)N[C@@H](C)C(=O)N[C@@H]([C@@H](C)O)C(=O)N1)[C@@H](C)O)C(=O)N1CCC[C@H]1C(=O)N[C@@H](CO)C(=O)N[C@@H](CO)C(=O)N[C@H](C(=O)N[C@@H](CC(N)=O)C(=O)N[C@H](C(=O)NCC(=O)N[C@@H](CO)C(=O)N[C@@H](CCCCN)C(=O)N[C@H](C(=O)N[C@@H](Cc1ccc(O)cc1)C(N)=O)[C@@H](C)O)C(C)C)[C@@H](C)O [Example 35] (H-K([γGlu-C20 diacid])CNTATCATQRLANFLRHSSPNFGAIPSSTNVGSKTY-NH2; disulfide 2-7; N-terminus assumed)			
3.8	3.8	9.55	3.8	45 h	7.65	8.96	CC[C@H](C)[C@H](NC(=O)[C@H](C)NC(=O)CNC(=O)[C@H](Cc1ccccc1)NC(=O)[C@H](CC(N)=O)NC(=O)[C@@H]1CCCN1C(=O)[C@H](CO)NC(=O)[C@H](CO)NC(=O)[C@H](Cc1c[nH]cn1)NC(=O)[C@H](CCCNC(=N)N)NC(=O)[C@H](CC(C)C)NC(=O)[C@H](Cc1ccccc1)NC(=O)[C@H](CCC(=O)O)NC(=O)[C@H](C)NC(=O)[C@H](CC(C)C)NC(=O)[C@H](CCCNC(=N)N)NC(=O)[C@H](CCC(N)=O)NC(=O)[C@@H](NC(=O)[C@H](C)NC(=O)[C@@H]1CSSC[C@H](NC(=O)[C@@H](N)CCCCNC(=O)CC[C@H](NC(=O)CC[C@H](NC(=O)CCCCCCCCCCCCCCCCCCC(=O)O)C(=O)O)C(=O)O)C(=O)N[C@@H](CC(N)=O)C(=O)N[C@@H]([C@@H](C)O)C(=O)N[C@@H](C)C(=O)N[C@@H]([C@@H](C)O)C(=O)N1)[C@@H](C)O)C(=O)N1CCC[C@H]1C(=O)N[C@@H](CO)C(=O)N[C@@H](CO)C(=O)N[C@H](C(=O)N[C@@H](CC(N)=O)C(=O)N[C@H](C(=O)NCC(=O)N[C@@H](Cc1c[nH]cn1)C(=O)N[C@@H](CC(N)=O)C(=O)N[C@H](C(=O)N[C@@H](Cc1ccc(O)cc1)C(N)=O)[C@@H](C)O)C(C)C)[C@@H](C)O [Example 87] (H-K([γGlu-γGlu-C20 diacid])CNTATCATQRLAEFLRHSSPNFGAIPSSTNVGHNTY-NH2; disulfide 2-7)			
29.9	29.9	9.67	29.9	12 h	7.60	8.20	CC[C@H](C)[C@H](NC(=O)[C@H](C)NC(=O)CNC(=O)[C@H](Cc1ccccc1)NC(=O)[C@H](CC(N)=O)NC(=O)[C@@H]1CCCN1C(=O)[C@H](CO)NC(=O)[C@H](CO)NC(=O)[C@H](Cc1c[nH]cn1)NC(=O)[C@H](CCCNC(=N)N)NC(=O)[C@H](CC(C)C)NC(=O)[C@H](Cc1ccccc1)NC(=O)[C@H](CC(N)=O)NC(=O)[C@H](C)NC(=O)[C@H](CC(C)C)NC(=O)[C@H](CCCNC(=N)N)NC(=O)[C@H](CCC(N)=O)NC(=O)[C@@H](NC(=O)[C@H](C)NC(=O)[C@@H]1CSSC[C@H](NC(=O)[C@@H](N)CCCCNC(=O)COCCOCCNC(=O)CC[C@H](NC(=O)CCCCCCCCCCCCCCCCCCC(=O)O)C(=O)O)C(=O)N[C@@H](CC(N)=O)C(=O)N[C@@H]([C@@H](C)O)C(=O)N[C@@H](C)C(=O)N[C@@H]([C@@H](C)O)C(=O)N1)[C@@H](C)O)C(=O)N1CCC[C@H]1C(=O)N[C@@H](CO)C(=O)N[C@@H](CO)C(=O)N[C@H](C(=O)N[C@@H](CC(N)=O)C(=O)N[C@H](C(=O)NCC(=O)N[C@@H](CO)C(=O)N[C@@H](CCC(=O)O)C(=O)N[C@H](C(=O)N[C@@H](Cc1ccc(O)cc1)C(N)=O)[C@@H](C)O)C(C)C)[C@@H](C)O [Example 26] (H-K([AEEA-γGlu-C20 diacid])CNTATCATQRLANFLRHSSPNFGAIPSSTNVGSETY-NH2; disulfide 2-7; N-terminus assumed)			
